# According to PMC10905675, “INX-315, a Selective CDK2 Inhibitor, Induces Cell Cycle Arrest and Senescence in Solid Tumors” (Cancer Discovery, 2023):
# Tests used:
# Test in all cases: SelectScreen LanthaScreen Binding
# Settings in all cases: INX-0315 at 100nM
# BMPR2 = molecular target: T1, BMPR2 (Homo sapiens, UniProt Q13873)
# T1 construct: purchased Thermo Fisher Scientific SelectScreen (plus Nanosyn / Reaction Biology for CDK/cyclin lines)
# Outline: (§1)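 Screening in two stages: one concentration of inhibitor (100 nmol/L; 1% DMSO), then a ten-point series from 1 µmol/L to 0.0495 nmol/L. Conditions were those fixed in advance by the provider.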
# PLK4 = molecular target: T2, PLK4 (Homo sapiens, UniProt O00444)
# T2 construct: purchased Thermo Fisher Scientific SelectScreen (plus Nanosyn / Reaction Biology for CDK/cyclin lines)
# Outline: as §1
# MAP2K5 (MEK5) = molecular target: T3, MAP2K5 (MEK5) (Homo sapiens, UniProt Q13163)
# T3 construct: purchased Thermo Fisher Scientific SelectScreen (plus Nanosyn / Reaction Biology for CDK/cyclin lines)
# Outline: as §1
# TAOK1 = molecular target: T4, TAOK1 (Homo sapiens, UniProt Q7L7X3)
# T4 construct: purchased Thermo Fisher Scientific SelectScreen (plus Nanosyn / Reaction Biology for CDK/cyclin lines)
# T4 sequence (Q7L7X3 whole entry): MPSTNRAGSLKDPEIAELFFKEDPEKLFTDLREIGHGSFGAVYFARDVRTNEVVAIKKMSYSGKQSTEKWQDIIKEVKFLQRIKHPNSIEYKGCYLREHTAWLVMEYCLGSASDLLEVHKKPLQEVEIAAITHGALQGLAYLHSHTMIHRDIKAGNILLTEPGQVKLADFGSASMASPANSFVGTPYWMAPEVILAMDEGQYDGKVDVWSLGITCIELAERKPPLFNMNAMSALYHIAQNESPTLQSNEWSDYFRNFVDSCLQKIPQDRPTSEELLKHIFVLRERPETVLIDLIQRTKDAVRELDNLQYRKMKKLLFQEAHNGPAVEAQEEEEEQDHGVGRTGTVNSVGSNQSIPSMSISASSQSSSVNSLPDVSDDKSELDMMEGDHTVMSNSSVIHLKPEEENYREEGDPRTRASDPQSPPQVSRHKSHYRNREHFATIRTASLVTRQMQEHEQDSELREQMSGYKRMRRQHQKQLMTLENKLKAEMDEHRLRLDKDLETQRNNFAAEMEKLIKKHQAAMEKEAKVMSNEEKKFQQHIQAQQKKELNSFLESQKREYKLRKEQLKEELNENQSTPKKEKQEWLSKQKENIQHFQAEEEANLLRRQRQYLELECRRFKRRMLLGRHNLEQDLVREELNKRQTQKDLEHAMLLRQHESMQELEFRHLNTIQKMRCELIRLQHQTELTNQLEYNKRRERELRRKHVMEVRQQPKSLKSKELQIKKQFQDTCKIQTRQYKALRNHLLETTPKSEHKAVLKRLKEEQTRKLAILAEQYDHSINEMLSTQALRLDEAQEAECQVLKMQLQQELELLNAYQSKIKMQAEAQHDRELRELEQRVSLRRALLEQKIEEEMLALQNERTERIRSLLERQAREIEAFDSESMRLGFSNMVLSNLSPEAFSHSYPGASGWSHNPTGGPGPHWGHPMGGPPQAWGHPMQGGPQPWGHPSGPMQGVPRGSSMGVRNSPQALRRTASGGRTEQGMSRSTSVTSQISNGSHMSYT
# Outline: as §1
# AMPK (A2/B2/G1) = molecular target: T5, AMPK (A2/B2/G1) (Homo sapiens, UniProt P54646)
# T5 construct: purchased Thermo Fisher Scientific SelectScreen (plus Nanosyn / Reaction Biology for CDK/cyclin lines)
# Outline: as §1
# SIK3 = molecular target: T6, SIK3 (Homo sapiens, UniProt Q9Y2K2)
# T6 construct: purchased Thermo Fisher Scientific SelectScreen (plus Nanosyn / Reaction Biology for CDK/cyclin lines)
# Outline: as §1
# MAP2K2 (MEK2) = molecular target: T7, MAP2K2 (MEK2) (Homo sapiens, UniProt P36507)
# T7 construct: purchased Thermo Fisher Scientific SelectScreen (plus Nanosyn / Reaction Biology for CDK/cyclin lines)
# Outline: as §1
# MLCK (MLCK2) = molecular target: T8, MLCK (MLCK2) (Homo sapiens, UniProt Q32MK0)
# T8 construct: purchased Thermo Fisher Scientific SelectScreen (plus Nanosyn / Reaction Biology for CDK/cyclin lines)
# Outline: as §1
# NEK8 = molecular target: T9, NEK8 (Homo sapiens, UniProt Q86SG6)
# T9 construct: purchased Thermo Fisher Scientific SelectScreen (plus Nanosyn / Reaction Biology for CDK/cyclin lines)
# Outline: as §1
# PKN2 (PRK2) = molecular target: T10, PKN2 (PRK2) (Homo sapiens, UniProt Q16513)
# T10 construct: purchased Thermo Fisher Scientific SelectScreen (plus Nanosyn / Reaction Biology for CDK/cyclin lines)
# Outline: as §1
# CDK2/cyclin E1 = molecular target: T11, CDK2/cyclin E1 (Homo sapiens, UniProt P24941)
# T11 construct: purchased Millipore 14-475
# Outline: as §1
# CDK16 (PCTK1)/cyclin Y = molecular target: T12, CDK16 (PCTK1)/cyclin Y (Homo sapiens, UniProt Q00536)
# T12 construct: purchased Thermo Fisher Scientific SelectScreen (plus Nanosyn / Reaction Biology for CDK/cyclin lines)
# Outline: as §1
# NUAK2 = molecular target: T13, NUAK2 (Homo sapiens, UniProt Q9H093)
# T13 construct: purchased Thermo Fisher Scientific SelectScreen (plus Nanosyn / Reaction Biology for CDK/cyclin lines)
# Outline: as §1
# CDK8/cyclin C = molecular target: T14, CDK8/cyclin C (Homo sapiens, UniProt P49336)
# T14 construct: purchased Thermo Fisher Scientific SelectScreen (plus Nanosyn / Reaction Biology for CDK/cyclin lines)
# Outline: as §1
# CDK9 (Inactive) = molecular target: T15, CDK9 (Inactive) (Homo sapiens, UniProt P50750)
# T15 construct: purchased Thermo Fisher Scientific SelectScreen (plus Nanosyn / Reaction Biology for CDK/cyclin lines)
# Outline: as §1
# MYLK (MLCK) = molecular target: T16, MYLK (MLCK) (Homo sapiens, UniProt Q15746)
# T16 construct: purchased Thermo Fisher Scientific SelectScreen (plus Nanosyn / Reaction Biology for CDK/cyclin lines)
# Outline: as §1
# WNK3 = molecular target: T17, WNK3 (Homo sapiens, UniProt Q9BYP7)
# T17 construct: purchased Thermo Fisher Scientific SelectScreen (plus Nanosyn / Reaction Biology for CDK/cyclin lines)
# Outline: as §1
# ABL1 M351T = molecular target: T18, ABL1 M351T (Homo sapiens, UniProt P00519, M351T)
# T18 construct: purchased Thermo Fisher Scientific SelectScreen (plus Nanosyn / Reaction Biology for CDK/cyclin lines)
# Outline: as §1
# BRAF = molecular target: T19, BRAF (Homo sapiens, UniProt P15056)
# T19 construct: purchased Thermo Fisher Scientific SelectScreen (plus Nanosyn / Reaction Biology for CDK/cyclin lines)
# Outline: as §1
# AMPK (A1/B1/G3) = molecular target: T20, AMPK (A1/B1/G3) (Homo sapiens, UniProt Q13131)
# T20 construct: purchased Thermo Fisher Scientific SelectScreen (plus Nanosyn / Reaction Biology for CDK/cyclin lines)
# Outline: as §1
# [1] = molecular target: T21, EGFR (ErbB1) d747-749 A750P (Homo sapiens, UniProt P00533, A750P/DEL747-749)
# T21 construct: purchased Thermo Fisher Scientific SelectScreen (plus Nanosyn / Reaction Biology for CDK/cyclin lines)
# Outline: as §1
# MAP2K1 (MEK1) = molecular target: T22, MAP2K1 (MEK1) (Homo sapiens, UniProt Q02750)
# T22 construct: purchased Thermo Fisher Scientific SelectScreen (plus Nanosyn / Reaction Biology for CDK/cyclin lines)
# T22 sequence (Q02750 whole entry): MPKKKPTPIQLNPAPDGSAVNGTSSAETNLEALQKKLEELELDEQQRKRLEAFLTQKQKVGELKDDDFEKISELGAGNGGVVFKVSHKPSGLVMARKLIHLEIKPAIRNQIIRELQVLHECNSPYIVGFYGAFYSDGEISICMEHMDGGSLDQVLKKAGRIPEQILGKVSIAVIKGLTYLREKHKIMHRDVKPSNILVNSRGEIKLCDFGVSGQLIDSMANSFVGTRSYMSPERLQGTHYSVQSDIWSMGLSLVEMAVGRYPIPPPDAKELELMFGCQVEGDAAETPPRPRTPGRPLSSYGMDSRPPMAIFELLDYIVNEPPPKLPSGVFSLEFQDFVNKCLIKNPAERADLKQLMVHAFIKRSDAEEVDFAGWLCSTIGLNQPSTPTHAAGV
# Outline: as §1
# DDR2 N456S = molecular target: T23, DDR2 N456S (Homo sapiens, UniProt Q16832, N456S)
# T23 construct: purchased Thermo Fisher Scientific SelectScreen (plus Nanosyn / Reaction Biology for CDK/cyclin lines)
# T23 sequence (Q16832 22-855 N456S): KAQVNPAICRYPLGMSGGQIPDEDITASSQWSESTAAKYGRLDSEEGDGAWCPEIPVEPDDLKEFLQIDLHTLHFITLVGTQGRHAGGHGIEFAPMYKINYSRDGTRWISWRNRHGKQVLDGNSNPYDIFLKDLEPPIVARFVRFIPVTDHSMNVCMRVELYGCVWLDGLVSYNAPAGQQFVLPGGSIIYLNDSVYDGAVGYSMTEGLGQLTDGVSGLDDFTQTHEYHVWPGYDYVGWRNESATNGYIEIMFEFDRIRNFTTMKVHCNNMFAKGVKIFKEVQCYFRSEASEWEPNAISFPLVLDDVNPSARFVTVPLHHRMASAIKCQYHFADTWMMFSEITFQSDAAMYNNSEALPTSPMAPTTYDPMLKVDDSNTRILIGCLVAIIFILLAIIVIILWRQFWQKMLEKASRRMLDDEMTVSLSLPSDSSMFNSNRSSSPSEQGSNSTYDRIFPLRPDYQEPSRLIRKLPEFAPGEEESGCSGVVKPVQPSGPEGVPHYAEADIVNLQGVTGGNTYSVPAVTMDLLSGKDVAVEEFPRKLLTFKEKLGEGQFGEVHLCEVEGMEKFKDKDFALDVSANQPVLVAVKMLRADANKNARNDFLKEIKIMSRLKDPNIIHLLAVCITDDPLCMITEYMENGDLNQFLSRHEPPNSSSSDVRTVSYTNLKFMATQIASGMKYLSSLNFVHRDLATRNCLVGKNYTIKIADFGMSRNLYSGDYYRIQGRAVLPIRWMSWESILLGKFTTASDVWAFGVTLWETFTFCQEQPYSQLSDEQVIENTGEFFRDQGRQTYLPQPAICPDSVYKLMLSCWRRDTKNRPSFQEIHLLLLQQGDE
# Outline: as §1
# CLK4 = molecular target: T24, CLK4 (Homo sapiens, UniProt Q9HAZ1)
# T24 construct: purchased Thermo Fisher Scientific SelectScreen (plus Nanosyn / Reaction Biology for CDK/cyclin lines)
# Outline: as §1
# HUNK = molecular target: T25, HUNK (Homo sapiens, UniProt P57058)
# T25 construct: purchased Thermo Fisher Scientific SelectScreen (plus Nanosyn / Reaction Biology for CDK/cyclin lines)
# Outline: as §1
# LIMK2 = molecular target: T26, LIMK2 (Homo sapiens, UniProt P53671)
# T26 construct: purchased Thermo Fisher Scientific SelectScreen (plus Nanosyn / Reaction Biology for CDK/cyclin lines)
# Outline: as §1
# CDK14 (PFTK1)/cyclin Y = molecular target: T27, CDK14 (PFTK1)/cyclin Y (Homo sapiens, UniProt O94921)
# T27 construct: purchased Thermo Fisher Scientific SelectScreen (plus Nanosyn / Reaction Biology for CDK/cyclin lines)
# Outline: as §1
# PKMYT1 = molecular target: T28, PKMYT1 (Homo sapiens, UniProt Q99640)
# T28 construct: purchased Thermo Fisher Scientific SelectScreen (plus Nanosyn / Reaction Biology for CDK/cyclin lines)
# T28 sequence (Q99640 whole entry): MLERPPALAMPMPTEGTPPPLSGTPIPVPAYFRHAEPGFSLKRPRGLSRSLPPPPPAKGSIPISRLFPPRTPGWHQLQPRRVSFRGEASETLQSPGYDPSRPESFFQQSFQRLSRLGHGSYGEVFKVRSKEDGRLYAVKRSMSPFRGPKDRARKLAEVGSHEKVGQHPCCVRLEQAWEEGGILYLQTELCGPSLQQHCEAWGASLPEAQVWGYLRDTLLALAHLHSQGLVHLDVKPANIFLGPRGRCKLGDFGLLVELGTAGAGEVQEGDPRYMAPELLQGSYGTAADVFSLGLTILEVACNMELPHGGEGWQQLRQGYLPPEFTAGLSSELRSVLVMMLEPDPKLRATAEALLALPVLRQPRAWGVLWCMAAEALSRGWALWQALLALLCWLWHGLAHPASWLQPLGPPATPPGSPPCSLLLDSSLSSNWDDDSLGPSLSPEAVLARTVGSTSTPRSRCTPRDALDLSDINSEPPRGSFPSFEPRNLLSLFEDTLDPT
# Outline: as §1
# TESK1 = molecular target: T29, TESK1 (Homo sapiens, UniProt Q15569)
# T29 construct: purchased Thermo Fisher Scientific SelectScreen (plus Nanosyn / Reaction Biology for CDK/cyclin lines)
# Outline: as §1
# STK16 (PKL12) = molecular target: T30, STK16 (PKL12) (Homo sapiens, UniProt O75716)
# T30 construct: purchased Thermo Fisher Scientific SelectScreen (plus Nanosyn / Reaction Biology for CDK/cyclin lines)
# T30 sequence (O75716 whole entry): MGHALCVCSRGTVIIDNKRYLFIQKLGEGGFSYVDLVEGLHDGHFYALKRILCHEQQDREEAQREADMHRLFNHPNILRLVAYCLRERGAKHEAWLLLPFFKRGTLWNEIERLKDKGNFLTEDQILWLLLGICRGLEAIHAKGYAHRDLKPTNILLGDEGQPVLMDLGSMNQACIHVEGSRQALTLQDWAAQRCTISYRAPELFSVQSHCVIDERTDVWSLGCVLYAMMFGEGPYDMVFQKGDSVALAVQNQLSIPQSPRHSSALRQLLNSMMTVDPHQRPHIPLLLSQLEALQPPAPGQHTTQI
# Outline: as §1
# [2] = molecular target: T31, MAP3K7/MAP3K7IP1 (TAK1-TAB1) (Homo sapiens, UniProt O43318)
# T31 construct: purchased Thermo Fisher Scientific SelectScreen (plus Nanosyn / Reaction Biology for CDK/cyclin lines)
# Outline: as §1
# ZAK = molecular target: T32, ZAK (Homo sapiens, UniProt Q9NYL2)
# T32 construct: purchased Thermo Fisher Scientific SelectScreen (plus Nanosyn / Reaction Biology for CDK/cyclin lines)
# Outline: as §1
# PRKACG (PRKAC gamma) = molecular target: T33, PRKACG (PRKAC gamma) (Homo sapiens, UniProt P22612)
# T33 construct: purchased Thermo Fisher Scientific SelectScreen (plus Nanosyn / Reaction Biology for CDK/cyclin lines)
# Outline: as §1
# KIT D820E = molecular target: T34, KIT D820E (Homo sapiens, UniProt P10721, D820E)
# T34 construct: purchased Thermo Fisher Scientific SelectScreen (plus Nanosyn / Reaction Biology for CDK/cyclin lines)
# T34 sequence (P10721 26-976 D820E): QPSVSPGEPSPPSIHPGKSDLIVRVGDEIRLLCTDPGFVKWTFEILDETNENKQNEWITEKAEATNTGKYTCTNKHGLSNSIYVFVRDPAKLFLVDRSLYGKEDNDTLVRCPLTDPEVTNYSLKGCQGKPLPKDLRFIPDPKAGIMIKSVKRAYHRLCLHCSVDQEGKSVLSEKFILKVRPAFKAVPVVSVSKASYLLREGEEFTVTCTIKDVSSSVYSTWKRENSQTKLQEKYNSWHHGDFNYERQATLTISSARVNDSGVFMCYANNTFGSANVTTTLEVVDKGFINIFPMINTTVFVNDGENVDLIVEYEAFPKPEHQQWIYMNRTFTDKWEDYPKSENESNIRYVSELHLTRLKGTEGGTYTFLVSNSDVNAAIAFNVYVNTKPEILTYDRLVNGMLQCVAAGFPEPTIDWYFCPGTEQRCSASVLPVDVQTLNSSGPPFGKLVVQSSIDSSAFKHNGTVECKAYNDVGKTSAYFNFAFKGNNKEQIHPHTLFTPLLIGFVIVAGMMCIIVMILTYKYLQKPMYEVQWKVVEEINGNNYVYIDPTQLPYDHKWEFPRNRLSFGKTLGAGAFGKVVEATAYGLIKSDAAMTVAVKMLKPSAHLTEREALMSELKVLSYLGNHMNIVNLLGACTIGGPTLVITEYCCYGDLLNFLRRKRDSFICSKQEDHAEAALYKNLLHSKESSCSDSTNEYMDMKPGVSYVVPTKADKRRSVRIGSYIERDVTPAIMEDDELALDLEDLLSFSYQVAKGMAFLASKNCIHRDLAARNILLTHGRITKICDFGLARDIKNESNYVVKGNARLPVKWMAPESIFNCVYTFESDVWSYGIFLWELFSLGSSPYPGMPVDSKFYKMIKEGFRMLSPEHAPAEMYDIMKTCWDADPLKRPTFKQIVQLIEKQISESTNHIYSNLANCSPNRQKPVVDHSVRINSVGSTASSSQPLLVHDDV
# Outline: as §1
# KIT N822K = molecular target: T35, KIT N822K (Homo sapiens, UniProt P10721, N822K)
# T35 construct: purchased Thermo Fisher Scientific SelectScreen (plus Nanosyn / Reaction Biology for CDK/cyclin lines)
# T35 sequence (P10721 26-976 N822K): as the sequence (P10721 26-976 D820E) above, with E795D, N797K counted along it
# Outline: as §1
# MAPK10 (JNK3) = molecular target: T36, MAPK10 (JNK3) (Homo sapiens, UniProt P53779)
# T36 construct: purchased Thermo Fisher Scientific SelectScreen (plus Nanosyn / Reaction Biology for CDK/cyclin lines)
# Outline: as §1
# CDK9/cyclin K = molecular target: T37, CDK9/cyclin K (Homo sapiens, UniProt P50750)
# T37 construct: purchased Thermo Fisher Scientific SelectScreen (plus Nanosyn / Reaction Biology for CDK/cyclin lines)
# Outline: as §1
# DMPK = molecular target: T38, DMPK (Homo sapiens, UniProt Q09013)
# T38 construct: purchased Thermo Fisher Scientific SelectScreen (plus Nanosyn / Reaction Biology for CDK/cyclin lines)
# Outline: as §1
# T1 sequence (Q13873 27-1038): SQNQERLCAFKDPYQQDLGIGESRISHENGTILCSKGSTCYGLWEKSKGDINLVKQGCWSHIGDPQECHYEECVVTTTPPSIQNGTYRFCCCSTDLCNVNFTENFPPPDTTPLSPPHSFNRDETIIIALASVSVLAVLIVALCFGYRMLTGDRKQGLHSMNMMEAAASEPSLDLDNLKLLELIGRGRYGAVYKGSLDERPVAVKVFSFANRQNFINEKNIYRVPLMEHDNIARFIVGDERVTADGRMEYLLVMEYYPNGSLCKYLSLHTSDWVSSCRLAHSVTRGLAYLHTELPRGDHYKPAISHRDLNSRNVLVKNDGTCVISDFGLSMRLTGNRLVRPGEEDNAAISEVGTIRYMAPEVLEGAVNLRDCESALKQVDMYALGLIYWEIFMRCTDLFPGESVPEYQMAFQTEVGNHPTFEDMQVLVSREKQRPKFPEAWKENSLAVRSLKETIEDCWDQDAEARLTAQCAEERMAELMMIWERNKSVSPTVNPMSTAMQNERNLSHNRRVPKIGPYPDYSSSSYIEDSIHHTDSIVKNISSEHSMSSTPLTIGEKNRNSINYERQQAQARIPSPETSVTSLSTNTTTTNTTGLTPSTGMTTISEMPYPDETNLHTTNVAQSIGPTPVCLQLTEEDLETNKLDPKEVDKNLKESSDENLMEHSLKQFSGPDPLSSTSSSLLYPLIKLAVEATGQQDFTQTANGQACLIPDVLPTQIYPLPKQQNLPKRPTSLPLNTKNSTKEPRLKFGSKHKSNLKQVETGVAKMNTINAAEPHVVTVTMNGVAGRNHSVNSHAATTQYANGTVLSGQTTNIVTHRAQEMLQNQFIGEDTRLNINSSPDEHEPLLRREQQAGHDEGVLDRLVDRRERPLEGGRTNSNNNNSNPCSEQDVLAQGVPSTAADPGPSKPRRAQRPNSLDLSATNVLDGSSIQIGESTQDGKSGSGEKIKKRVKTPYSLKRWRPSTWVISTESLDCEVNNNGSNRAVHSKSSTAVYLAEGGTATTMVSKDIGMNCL
structure (smiles),measurement,setting,value
NS(=O)(=O)c1ccc(Nc2ncc3cc4n(c3n2)C2(CCCCC2)C(=O)NN4)cc1 [INX-315],inhibition at 0.1 µM,BMPR2,17%
same,inhibition at 0.1 µM,PLK4,29%
same,inhibition at 0.1 µM,MAP2K5 (MEK5),27%
same,inhibition at 0.1 µM,TAOK1,22%
same,inhibition at 0.1 µM,AMPK (A2/B2/G1),9%
same,inhibition at 0.1 µM,SIK3,2%
same,inhibition at 0.1 µM,MAP2K2 (MEK2),0%
same,inhibition at 0.1 µM,MLCK (MLCK2),5%
same,inhibition at 0.1 µM,NEK8,0%
same,inhibition at 0.1 µM,PKN2 (PRK2),11%
same,inhibition at 0.1 µM,CDK2/cyclin E1,98%
same,inhibition at 0.1 µM,CDK16 (PCTK1)/cyclin Y,64%
same,inhibition at 0.1 µM,NUAK2,35%
same,inhibition at 0.1 µM,CDK8/cyclin C,0%
same,inhibition at 0.1 µM,CDK9 (Inactive),44%
same,inhibition at 0.1 µM,MYLK (MLCK),6%
same,inhibition at 0.1 µM,WNK3,2%
same,inhibition at 0.1 µM,ABL1 M351T,13%
same,inhibition at 0.1 µM,BRAF,-1%
same,inhibition at 0.1 µM,AMPK (A1/B1/G3),19%
same,inhibition at 0.1 µM,[1],12%
same,inhibition at 0.1 µM,MAP2K1 (MEK1),5%
same,inhibition at 0.1 µM,DDR2 N456S,14%
same,inhibition at 0.1 µM,CLK4,-2%
same,inhibition at 0.1 µM,HUNK,-5%
same,inhibition at 0.1 µM,LIMK2,22%
same,inhibition at 0.1 µM,CDK14 (PFTK1)/cyclin Y,24%
same,inhibition at 0.1 µM,PKMYT1,-2%
same,inhibition at 0.1 µM,TESK1,2%
same,inhibition at 0.1 µM,STK16 (PKL12),57%
same,inhibition at 0.1 µM,[2],14%
same,inhibition at 0.1 µM,ZAK,3%
same,inhibition at 0.1 µM,PRKACG (PRKAC gamma),-12%
same,inhibition at 0.1 µM,KIT D820E,12%
same,inhibition at 0.1 µM,KIT N822K,17%
same,inhibition at 0.1 µM,MAPK10 (JNK3),12%
same,inhibition at 0.1 µM,CDK9/cyclin K,38%
same,inhibition at 0.1 µM,DMPK,6%
